Tested on: cancer cells
Experiment: Cancer cell proliferation assay
Format: cell-based
Method: Percent inhibition of cancer cell migration was performed in a wound healing assay. The percent area that the invading cancer cells occupied, in the presence of a drug candidate compared to the controls, was quantified by Image J cell software which enables cell counting from photographs. IC50's were calculated by performing migration experiments at several compound concentrations and then applying Hill's equation. Inhibition of cancer cell proliferation was quantified by automated cell counting in the presence or absence of a drug candidate. […] The effect of the drug candidates on stem cell pluripotency or proliferation was scored by eye, based on cell morphology and cell density, with 0 being no change in morphology or cell number and 4 being the most profound effect, with the stem cells taking on the morphology of a differentiating cell, along with much fewer cells indicative of inhibition of proliferation. […]
For the cancer cell proliferation experiment cancer cells were plated at constant densities (6000 cells/well) into a 96-well White-walled/Clear-bottom Tissue Culture Treated plate (Corning Incorporated, Big Flats, NY). […] At the 120 hour mark a calcein fluorescence assay (Thermo Fisher Scientific, Waltham, MA) is performed on the plate. Calcein fluorescence (final concentration 0.5 uM) is used to assess cell viability. […]

| SMILES | inhibited cancer cell proliferation |
| --- | --- |
| CN(C[C@H]1CC[C@H](C(=O)N2CCc3c([nH]c4ccccc34)C2C2CC2)CC1)C(=O)NC(C)(C)C (some centres unmarked) [MN1413] | about 50% |
| C[C@@H]1Cc2c([nH]c3ccccc23)CN1C(=O)C1CCC(CN(C)C(=O)NC(C)(C)C)CC1 (some centres unmarked) [MN1423] | 50% |
